Literature values as cited in patent US12622907B2, “Hair loss therapy” (NIRMANA BIO, INC., priority 2021, dated 2026).
Read-outs that look alike come from different tables or passages of the source.

Experiments:
[1] = test system: men with male pattern hair loss; details: oral 1 mg/day
943 women and 461 men = details: for subjects who had to stop treatment because of a side effect: low doses used for hair loss

| SMILES | recipients with no further hair loss compared with baseline (hair counts) ([1]; men with vertex hair loss, after 2 years) | recipients with improvement in hair growth in global photographs ([1]; men with vertex hair loss, at 1 year) | recipients with improvement in hair growth in global photographs ([1]; men with vertex hair loss, at 2 years) | effect on hair growth and hair loss ([1]; significant proportion of men with male pattern hair loss) | frequency of side effects (943 women and 461 men; low doses which are used to treat hair loss) | subjects who had to stop treatment because of a side effect (943 women and 461 men; men (461)) | subjects who had to stop treatment because of a side effect (943 women and 461 men; women (943)) |
| --- | --- | --- | --- | --- | --- | --- | --- |
| CC(C)(C)NC(=O)[C@H]1CC[C@H]2[C@@H]3CC[C@H]4NC(=O)C=C[C@]4(C)[C@H]3CC[C@]12C [finasteride, Finasteride] | 83% | 48% | 66% | promotes hair growth and prevents further hair loss | – | – | – |
| Nc1cc(N2CCCCC2)nc(N)[n+]1[O-] [minoxidil, Minoxidil] | – | – | – | – | very uncommon | 0.5% | 2.5% |
